How the values were obtained:
HCT-116/VM46 = test: Compound was tested in vitro for cytotoxicity against VM46 subline of HCT116 (taxol-resistant) at a drug concentration producing 50% inhibition of colony formation; details: Homo sapiens, read-out: ID50 (the source's name)
Mus musculus [1] = organism: Mus musculus; test: The tumor growth value was reported as ratio of surviving days of mice treated with anticancer drug to surviving days of control mice; format: functional
Mus musculus [2] = test: Compound was tested in vivo for antitumor activity, reported as non toxic dose (NTD) in mice injected intraperitoneally with drug
NCI/ADR-RES = test: Compound was tested in vitro for cytotoxicity against MCF-7ADR, human breast cancer cells (taxol-resistant) at a drug concentration producing 50% inhibition of colony formation; format: functional; details: read-out: ID50 (the source's name)
HCT-116 = test: Compound was tested in vitro for cytotoxicity against HCT116, human colon cancer cells (taxol-sensitive) at a drug concentration producing 50% inhibition of colony formation; details: read-out: ID50 (the source's name)
PC-3 = test: Compound was tested in vitro for cytotoxicity against PC-3, human prostate cancer cells (taxol-sensitive) at a drug concentration producing 50% inhibition of colony formation; format: functional; details: read-out: ID50 (the source's name)
Mus musculus [3] = test: Compound was tested in vivo for antitumor activity, reported as maximum tolerated dose (MTD) in mice injected intraperitoneally with drug

Row | Structure (SMILES) | IC50 (HCT-116/VM46) [nM] | T/C (Mus musculus [1]) [%] | NTD (Mus musculus [2]) [mg/kg] | IC50 (NCI/ADR-RES) [nM] | IC50 (HCT-116) [nM] | IC50 (PC-3) [nM] | MTD (Mus musculus [3]) [mg/kg]
1 | CC[C@@]1(OC(=O)CCCOc2ccc(Cl)cc2Cl)C(=O)OCc2c1cc1n(c2=O)Cc2cc3ccccc3nc2-1 | 27 | 250 | 100 | 89 | 39 |  | 
2 | CC[C@@]1(OC(=O)CO[C@@H]2C[C@H](C)CC[C@H]2C(C)C)C(=O)OCc2c1cc1n(c2=O)Cc2cc3ccccc3nc2-1 | 2.5 | 200 | 100 | 7.2 | 3.6 | 6.2 | 
3 | CC[C@@]1(OC(=O)COc2ccc(Br)cc2)C(=O)OCc2c1cc1n(c2=O)Cc2cc3ccccc3nc2-1 | 1.9 | 300 | 150 | 5.5 | 3 | 3.2 | 
4 | CC[C@@]1(OC(=O)COc2ccc3ccccc3c2)C(=O)OCc2c1cc1n(c2=O)Cc2cc3ccccc3nc2-1 | 1.8 | 117 | 150 | 4.1 | 3 | 3.9 | 
5 | CC[C@@]1(OC(=O)COc2ccc([N+](=O)[O-])cc2)C(=O)OCc2c1cc1n(c2=O)Cc2cc3ccccc3nc2-1 | 3 | 250 | 100 | 7 | 3.3 | 4.8 | 
6 | CC[C@@]1(OC(=O)COc2ccc3c(C)c(Cl)c(=O)oc3c2)C(=O)OCc2c1cc1n(c2=O)Cc2cc3ccccc3nc2-1 | 0.7 | 200 | 75 | 5.2 | 3.5 | 3 | 
7 | CC[C@@]1(OC(=O)COc2ccc(Cl)cc2C)C(=O)OCc2c1cc1n(c2=O)Cc2cc3ccccc3nc2-1 | 0.9 | 217 | 150 | 4.3 | 2.7 | 3.5 | 
8 | CC[C@@]1(OC(=O)CCCCOc2ccc(F)cc2Br)C(=O)OCc2c1cc1n(c2=O)Cc2cc3ccccc3nc2-1 | 94 |  | 150 | > 100 | > 100 |  | 
9 | CC[C@@]1(OC(=O)CCOc2ccccc2)C(=O)OCc2c1cc1n(c2=O)Cc2cc3ccccc3nc2-1 | 7 | 133 | 150 | 28 | 8 |  | 
10 | CC[C@@]1(OC(=O)COc2ccc3c(c2)OCO3)C(=O)OCc2c1cc1n(c2=O)Cc2cc3ccccc3nc2-1 | 2.4 | 200 | 45 | 5 | 3.1 | 4.6 | 
11 | CC[C@@]1(O)C(=O)OCc2c1cc1n(c2=O)Cc2cc3ccccc3nc2-1 [CAMPTOTHECIN] | 2.4 | 183 |  | 3.9 | 2.8 | 3.8 | 12
12 | CCc1c2c(nc3ccc(OC(=O)N4CCC(N5CCCCC5)CC4)cc13)-c1cc3c(c(=O)n1C2)COC(=O)[C@]3(O)CC [IRINOTECAN] | 220 | 217 |  | > 500 | 540 |  | 200
13 | CC(=O)O[C@H]1C(=O)[C@@]2(C)[C@H]([C@H](OC(=O)c3ccccc3)[C@]3(O)C[C@H](OC(=O)[C@H](O)[C@@H](NC(=O)c4ccccc4)c4ccccc4)C(C)=C1C3(C)C)[C@]1(OC(C)=O)CO[C@@H]1C[C@@H]2O [PACLITAXEL] | > 50 | 150 |  | > 10000 |  | 4 | 40.6

— ChEMBL document CHEMBL1135295, “Novel camptothecin derivatives. Part 1: oxyalkanoic acid esters of camptothecin and their in vitro and in vivo antitumor activity” (2002)
